In US6156762A, “Indolomorphinan derivative and agent for curing and preventing cerebral disorder” (Toray Industries, Inc., priority 1997, dated 2000):

How the values were obtained:
cultured nerve cells = assay: Action of protecting cultured nerve cells from glutamic acid toxicity (LDH leakage); assay type: cell-based, Wistar rat; details: rat fetal cerebral cortex cells, 10 mM glutamic acid, 24 hours, read-out: ED50 (the source's name)
Source text: It is known that when the blood flow to the brain is temporarily clogged due to cerebral ischemia, hypoxia, or an trauma, delayed cerebral neuronal death is induced [Document: Brain Research, Vol. 239, 57 (1982)]. A possible cause of such damage of the cerebral nerve cells is excitatory toxicity due to an excitatory neutotransmitter such as glutamic acid or the like, which is excessively released with ischemia [Document: Trends in Neuroscience, vol. 10, 299 (1987)]. […] This is a problem to be solved by the invention. This action was evaluated by using the in vitro evaluation system which will be described below.
A fetus was taken from the abdomen of a Wistar female rat on the 18 to 19th day of pregnancy under aseptic conditions, and the head of the fetus was opened to extract the brain. The brain was placed in an ice-cooled L-15 medium, and the cerebral cortex was separated under a microscope. The cerebral cortexes of about 30 rats were cut into pieces, and then suspended in 10 ml of a 0.25% trypsin solution and 0.2 ml of a 0.01% DNase solution, followed by culture at 37° C. for 30 minutes. Then, 2 ml of serum was added to the solution, and immediately the resultant mixture was centrifuged at 120 rpm for 2 minutes to separate the precipitates. To the precipitates was added 7 ml of a DF medium (a medium obtained by adding 20 nM of transferrin, 5 μg/ml of insulin, 20 nM of progesterone,60 nM of selenite, 50 U/ml of penicillin, and 50 U/ml of streptomycin to a mixture equivalent amounts of Dulbecco modified Eagle medium and F-12 medium), followed by 20 pipetting operations using a 10-ml plastic pipette to obtain a cell suspension. The cell suspension was filtered with nylon mesh (pore diameter 43 μm) to fractionate isolated cells. The thus-obtained isolated cells were diluted with a DF medium to a concentration of 6.0×10^5 cells/ml, and 500 μl of the diluted cells was inoculated in each of the 48 wells of a 48-well culture plate precoated with polylysine, followed by culture at 37° C. for 1 day in the presence of 5% of CO2. On the 2nd day, the medium was changed to a new DF medium, and 10 μl of a solution of 0.5M glutamic acid in distilled water was added to each of the wells (the final glutamic acid concentration was 10 mM), followed by further culture at 37° C. for 24 hours in the presence 5% of CO2. A test compound was dissolved in distilled water, 10% or 100% DMSO or 10% methanol, and 5 μl of the solution was added to each of the wells immediately before glutamic acid was added. As an index of nerve cell damage, the enzyme activity of lactic acid dehydrogenase (LDH) leaking from the damaged cells into the medium was measured. For each of the test compounds, the LDH leakage was measured at each of concentrations to determine a dose-response curve by the modified Cochran-Armitige method. The 50% effective dose (ED50) of each of the test compounds we determined from the curve.

[1] = system: middle cerebral artery ischemia model of rat; assay: Infarction inhibiting action in middle cerebral artery ischemia (MCAo-recirculation) model of rat; assay type: in vivo; details: ip, 24 h, 3 mg/kg i.p. 10 minutes before occlusion and 1 hour after recirculation, infarction volume one day after, vs control group, read-out: Rate of inhibition of infarction
Source text: It is also known that, in this way, in the acute stage of cerebral infarction, the lesion proceeds to the peripheral tissue from the core of infarction, and death of the nerve cells is extended with the passage of several days. This possible not only extends and creates grave aftereffects, and causes loss of motor and mental function, but also finally critically influences on the life. As an in vivo experimental model of cerebral infarction which is capable of precisely evaluating the clinical effect of a medicine in conformity with clinical conditions of the disease of a patient of cerebral infarction, the middle cerebral artery occlusion (MCAo)-recirculation model comprising an embolus with a yarn using Wister rates may be used [Document: Japan Journal of Stroke, vol. 8, 1 (1986)]. […] This action was evaluated by applying the MCAo model by the method which will be described below.
In rats of 10 weeks old, after etherization, a median incision of the cervical region was made up to the right carotid artery bifurcation under 1.0% halothane anesthetization with care to preserve the vagus nerves. The common carotid artery and the external carotid artery were separated from the periphery connective tissue with the right carotid artery bifurcation as the center, and each of the arteries was ligated by a 6-0 silk yarn (Eto yarn). Further, a yarn was wound on the internal carotid artery origin in preparation for ligation and fixing after insertion of the embolus. Next, the common carotid artery was incised, and the embolus was inserted from the common carotid artery to the internal carotid artery by about 15 to 16 mm, and ligated and fixed to the internal carotid artery by the silk yarn at the end thereof near the nylon yarn. In this operation, the end of the embolus was inserted into the anterior cerebral artery by about 1 to 2 mm beyond the middle cerebral artery bifurcation, and the inlet of the middle cerebral artery was occluded by the body (resin part) of the embolus for 1 hours. In recirculation, the embolus with a yarn was removed to recirculate the blood flow to the middle cerebral artery. 3 mg/kg of each of test compounds was intraperitoneally administered 10 minutes before occlusion and 1 hour after recirculation of the blood flow. One day after occlusion and recirculation, the whole body was perfused with physiologic saline through the heart, and the brain was extracted. The extracted brain was cooled with ice and water for 5 minutes, and cut at intervals of 2.0 mm to form 7 sections of the cerebral coronal surface. Each of the sections was stained with TTC (Triphenyltetrazolium Chloride), and fixed by a 5% neutral buffer formalin solution. In each of the sections, the infarction area in the right cerebral hemisphere was measured by an image analyzer (Olympus), and the infarction was evaluated by volume (mm^3). The infarction volume was compared with the infarction volume of a control group to calculate the rate of inhibition of infarction.

Row | SMILES | EC50 (cultured nerve cells) | inhibition in vivo at 3 mg/kg [1]
1 | COc1ccc2c3c1O[C@H]1c4[nH]c5c(ccc6ccccc65)c4C[C@@]4(O)[C@@H](C2)N(CC2CC2)CC[C@]314 [Compound 17, 17-cyclopropylmethyl-3-methoxy-14β-hydroxy-6,7-dehydro-4,5α-epoxy-6,7,2',3'-(6',7'-benzoindolo)morphinan] | 120 nM | 56%
2 | Oc1ccc2c3c1O[C@H]1c4[nH]c5c(ccc6ccccc65)c4C[C@@]4(O)[C@@H](C2)N(CC2CC2)CC[C@]314 [Compound 2, 17-cyclopropylmethyl-3,14β-dihydroxy-6,7-dehydro-4,5α-epoxy-6,7,2',3'-(6',7'-benzoindolo)morphinan] | 33 nM | 72%
3 | Cn1c2c(c3ccc4ccccc4c31)C[C@@]1(O)[C@H]3Cc4ccc(O)c5c4[C@@]1(CCN3CC1CC1)[C@H]2O5 [Compound 72, 17-cyclopropylmethyl-3,14β-dihydroxy-6,7-dehydro-4,5α-epoxy-6,7,2',3'-(1'-methyl-6',7'-benzoindolo)morphinan] | 26 nM | 85%
4 | Oc1ccc2c3c1O[C@H]1c4[nH]c5ccccc5c4C[C@@]4(O)[C@@H](C2)N(CC2CC2)CC[C@]314 [Compound 1, 17-cyclopropylmethyl-3,14β-dihydroxy-6,7-dehydro-4,5α-epoxy-6,7,2',3'-indolomorphinan] |  | 23%
5 | Oc1ccc2c3c1O[C@H]1c4[nH]c5c(ccc6ccccc65)c4C[C@@]4(O)[C@@H](C2)N(CCc2ccccc2)CC[C@]314 [Compound 75, 17-(2-phenylethyl)-3,14β-dihydroxy-6,7-dehydro-4,5α-epoxy-6,7,2',3'-(6',7'-benzoindolo)morphinan] |  | 30%
6 | O=C(NCCCn1c2c(c3ccc4ccccc4c31)C[C@@]1(O)[C@H]3Cc4ccc(O)c5c4[C@@]1(CCN3CC1CC1)[C@H]2O5)c1cccnc1 [Compound 66, 17-cyclopropylmethyl-3,14β-dihydroxy-6,7-dehydro-4,5α-epoxy-6,7,2',3'-[1'-(3-nicotinamidopropyl)-6',7'-benzoindolo]morphinan] | 400 nM | 25%
7 | CS(=O)(=O)n1c2c(c3ccc4ccccc4c31)C[C@@]1(O)[C@H]3Cc4ccc(O)c5c4[C@@]1(CCN3CC1CC1)[C@H]2O5 [Compound 78, 17-cyclopropylmethyl-3,14β-dihydroxy-6,7-dehydro-4,5α-epoxy-6,7,2',3'-(1'-methylsulfonyl 6',7'-benzoindolo)morphinan] |  | 55%
8 | Cn1c2c(c3cc4c5c(cccc5c31)-c1ccccc1-4)C[C@@]1(O)[C@H]3Cc4ccc(O)c5c4[C@@]1(CCN3CC1CC1)[C@H]2O5 [Compound 77, 17-cyclopropylmethyl-3,14β-dihydroxy-6,7-dehydro-4,5α-epoxy-6,7,2',3'-(1'-methyl-5',6"-benzeno-6',7'-benzoindolo)morphinan] | 160 nM | 84%
9 | Oc1ccc2c3c1O[C@H]1c4[nH]c5ccc6ccccc6c5c4C[C@@]4(O)[C@@H](C2)N(CC2CC2)CC[C@]314 [Compound 8, 17-cyclopropylmethyl-3,14β-dihydroxy-6,7-dehydro-4,5α-epoxy-6,7,2',3'-(4',5'-benzoindolo)morphinan] | 200 nM | 49%
10 | Oc1ccc2c3c1O[C@H]1c4[nH]c5c6ccccc6c6ccccc6c5c4C[C@@]4(O)[C@@H](C2)N(CC2CC2)CC[C@]314 [Compound 23, 17-cyclopropylmethyl-3,14β-dihydroxy-6,7-dehydro-4,5α-epoxy-6,7,2',3'-(4',5',6',7'-debenzoindolo)morphinan] |  | 79%
11 | Oc1ccc2c3c1O[C@H]1c4[nH]c5cc(C6CCCCC6)ccc5c4C[C@@]4(O)[C@@H](C2)N(CC2CC2)CC[C@]314 [Compound 5, 17-cyclopropylmethyl-3,14β-dihydroxy-6,7-dehydro-4,5α-epoxy-6,7,2',3'-(6'-cyclohexylindolo)morphinan] | 120 nM | 31%
12 | Oc1ccc2c3c1O[C@H]1c4c(c5ccc6ccccc6c5n4Cc4ccccc4)C[C@@]4(O)[C@@H](C2)N(CC2CC2)CC[C@]314 [Compound 69, 17-cyclopropylmethyl-3,14β-dihydroxy-6,7-dehydro-4,5α-epoxy-6,7,2',3'-(1'-benzyl-6',7'-benzoindolo)morphinan] | 9.3 nM | 69%
13 | Oc1ccc2c3c1O[C@H]1c4[nH]c5c(ccc6ccccc65)c4C[C@@]4(O)[C@@H](C2)N(CC2CCC2)CC[C@]314 [Compound 76, 17-cyclobutylmethyl-3,14β-dihydroxy-6,7-dehydro-4,5α-epoxy-6,7,2',3'-(6',7'-benzoindolo)morphinan] |  | 65%
14 | Oc1ccc2c3c1O[C@H]1c4[nH]c5c(cc(Br)c6ccccc65)c4C[C@@]4(O)[C@@H](C2)N(CC2CC2)CC[C@]314 [Compound 9, 17-cyclopropylmethyl-3,14β-dihydroxy-6,7-dehydro-4,5α-epoxy-6,7,2',3'-(5'-bromo-6',7'-benzoindolo)morphinan] | 110 nM | 9%
15 | CN1CC[C@]23c4c5ccc(O)c4O[C@H]2c2[nH]c4c(ccc6ccccc64)c2C[C@@]3(O)[C@H]1C5 [Compound 74, 17-methyl-3,14β-dihydroxy-6,7-dehydro-4,5α-epoxy-6,7,2',3'-(6',7'-benzoindolo)morphinan] |  | 27%
16 | Oc1ccc2c3c1O[C@H]1c4[nH]c5c(cc6c7c(cccc75)-c5ccccc5-6)c4C[C@@]4(O)[C@@H](C2)N(CC2CC2)CC[C@]314 [Compound 19, 17-cyclopropylmethyl-3,14β-dihydroxy-6,7-dehydro-4,5α-epoxy-6,7,2',3'-(5',6"-benzeno-6',7'-benzoindolo)morphinan] | 200 nM | 29%
17 | O[C@@]12Cc3c([nH]c4c3ccc3ccccc34)[C@@H]3Oc4cccc5c4[C@@]31CCN(CC1CC1)[C@@H]2C5 [Compound 18, 17-cyclopropylmethyl-14β-hydroxy-6,7-dehydro-4,5α-epoxy-6,7,2',3'-(6',7'-benzoindolo)morphinan] | 900 nM | 23%
18 | Oc1ccc2c3c1O[C@H]1c4c(c5ccc6ccccc6c5n4CCCNC(=S)NCc4ccccc4)C[C@@]4(O)[C@@H](C2)N(CC2CC2)CC[C@]314 [Compound 67, 17-cyclopropylmethyl-3,14β-dihydroxy-6,7-dehydro-4,5α-epoxy-6,7,2',3'-[1'-[3-(N'-benzylthioureido)propyl]-6',7'-benzoindolo]morphinan] | 27 nM | 39%
